The data set concerns the target IRF4. The following applies: ASO.

“And” between values parts separate entries of the source, which are not always exact repeats. Equal entries are not always repeated. After the bases stand the sugars from the 5' end (letter, count) and the backbone: PS all phosphorothioate, else s phosphorothioate and o phosphodiester by linkage. Methylation of C is not given here. e = 2'-O-(2-methoxyethyl) (MOE); k = constrained ethyl (cEt); d = 2'-deoxy (DNA)

In the case of “AGTTCATGTAAAGTCT (sugars kkdddddddddekeke, PS)”, the target mRNA inhibition (MM.1R, 1 µM) was 51% and 49%. Consider “AGTTGTAAATGAGTCG (sugars kkdddddddddkdkdk, PS)”, for which the target mRNA inhibition (MM.1R, 1 µM) was 39%. For “AGTTGTAAATGAGTCG (sugars kkkddddddddkekek, PS)”, the target mRNA inhibition (MM.1R, 0.074 µM) was determined as 18%; the target mRNA inhibition (MM.1R, 0.222 µM) came to 46%; the target mRNA inhibition (MM.1R, 0.666 µM) is 49%; the target mRNA inhibition (MM.1R, 1 µM) was found to be 61%; the target mRNA inhibition (MM.1R, 2 µM) was found to be 73%.

Take AGTTTAAGGGTTACGC (sugars k3 d10 k3, PS): the target mRNA inhibition (MM.1R, 0.0625 µM) is -2% and 15%; the target mRNA inhibition (MM.1R, 0.074 µM) was determined as 7%; the target mRNA inhibition (MM.1R, 0.222 µM) came to 8%; the target mRNA inhibition (MM.1R, 0.666 µM) turned out to be 20%; the target mRNA inhibition (MM.1R, 1 µM) was 4% and 24%; the target mRNA inhibition (MM.1R, 2 µM) came out at 28%. Moreover, the target mRNA inhibition is, setting by setting: (MM.1R, 4 µM) 22% and 40%; (SK-MEL-28, 4 µM) 63%. Turning to AGTTTACTAACTGGCT (sugars k3 d10 k3, PS), the target mRNA inhibition (SK-MEL-28, 4 µM) was found to be 63%. On the same count and under the same terms, the same measure for ATAAAGGACCCCGCCA (sugars k3 d10 k3, PS): 18%. As to ATAACATGAGAGTGTT (sugars k3 d10 k3, PS), the target mRNA inhibition (MM.1R, 1 µM) was -17%. As for ATAACGAGGTGCCTTA (sugars k3 d10 k3, PS), the target mRNA inhibition (SK-MEL-28, 4 µM) turned out to be 13%.

As to ATAACGGTGTTTCAGA (sugars k3 d10 k3, PS), the target mRNA inhibition (SK-MEL-28, 4 µM) came to 47%. Still for that read-out and setting: the same measure for ATAAGAAGCACTGGCA (sugars k3 d10 k3, PS): 51%; for ATAAGATCCCACGAAG (sugars k3 d10 k3, PS): -42%; for ATACATCACTGCAGTT (sugars k3 d10 k3, PS): 36%. Same read-out and setting: the same measure for ATACATTCACACTGCC (sugars k3 d10 k3, PS): 45%.

As for ATAGCTGTTTATTTCC (sugars k4 d8 k4, PS), the target mRNA inhibition by setting is: (MM.1R, 0.074 µM) 7%; (MM.1R, 0.222 µM) 6%; (MM.1R, 0.666 µM) 11%; (MM.1R, 2 µM) 32%; (SK-MEL-28, 0.185 µM) -2% and -10% and -3%; (SK-MEL-28, 4 µM) 59%. The target mRNA inhibition (SK-MEL-28, 15 µM) is 81% and 79% and 91%. With ATAGTAGGTAAGATCT (sugars k3 d10 k3, PS), the target mRNA inhibition (SK-MEL-28, 4 µM) was -13%. On to ATAGTTGTCTGGCTAG (sugars k3 d10 k3, PS), for which the target mRNA inhibition (SK-MEL-28, 4 µM) came to 52%. With ATATACATTGAGGCAT (sugars k3 d10 k3, PS), the target mRNA inhibition (MM.1R, 1 µM) is -31%. ATATGACGACTTAAGC (sugars k3 d10 k3, PS): the target mRNA inhibition (SK-MEL-28, 4 µM) amounted to 38%. Same read-out and setting: the result for ATCACGAGGTTGCCGA (sugars k3 d10 k3, PS) reads 60%. As for ATCAGATACACACCCT (sugars k3 d10 k3, PS), where the note is “SK-MEL-28, 4 µM”, the target mRNA inhibition was -8%. As to ATCAGATGATGTCTAG (sugars k3 d10 k3, PS), under “SK-MEL-28, 4 µM”, the target mRNA inhibition was -3%. On the same count and under the same terms, the same measure for ATCCAGAGGACCACGC (sugars k3 d10 k3, PS): 19%; for ATCCTGTAGTATGAGA (sugars k3 d10 k3, PS): 45%. Still for that read-out and setting: the result for ATCCTTAATTATGCAG (sugars k3 d10 k3, PS) reads 39%.

For the sequence ATCGAGATCAGTCTCA (sugars k3 d10 k3, PS), for the setting “SK-MEL-28, 4 µM”, the target mRNA inhibition is 76%. The same measure, in the same setting: the same measure for ATCGAGCGGTGAAACT (sugars k3 d10 k3, PS): 29%. Regarding ATCTACTCCAGACCCC (sugars k3 d10 k3, PS), the target mRNA inhibition (SK-MEL-28, 4 µM) turned out to be 27%. Still for that read-out and setting: the result for ATCTATAAGATGTATA (sugars k4 d8 k4, PS) reads 36%; that for ATCTGAATTGTTACTA (sugars k3 d10 k3, PS), 12%; that for ATGAGATATTCCTCTC (sugars k3 d10 k3, PS), 32%. Still for that read-out and setting: the result for ATGAGTCGGTCACTTG (sugars k3 d10 k3, PS) reads 78% and 72%; that for ATGATATTAGAGACTG (sugars k3 d10 k3, PS), 74%.

For the sequence ATGGAACAGTAACTTG (sugars k3 d10 k3, PS), where the note is “MM.1R, 1 µM”, the target mRNA inhibition was 3%. With ATGGCAGTGGAGCTCC (sugars k3 d10 k3, PS), the target mRNA inhibition (SK-MEL-28, 4 µM) is 56%.

“ATGTGATAGCTGAGCT (sugars kkddddddddddkeke, PS)”: the target mRNA inhibition (MM.1R, 1 µM) was 4%.

“ATGTGATAGCTGAGCT (sugars kkdddddddddkekek, PS)”: the target mRNA inhibition (MM.1R, 1 µM) is 24%. Still for that read-out and setting: the same measure for “ATGTGTATTACTCTTA (sugars kdddddddddkekeke, PS)”: 36% and 49%.
